The data set is described as follows: RCM stapling (C=C formation) of two bridgehead alkenyl ether chains of 7-azabicyclo[2.2.1]heptane amide dimers; Grubbs I, 5-7 mol% (about 2.5-3 mol% for 36), added dropwise over 10-15 min, reflux under Ar. To be noted: CH2Cl2, 1.0 mM, 40.0 °C.

For `CC(C)(C)OC(=O)N1[C@H]2CC[C@@]13COCCCC=CCCCOCC14CCC(CC1)N4C(=O)[C@H]2C3` [1 -> 6 (C8)], the ring closure, isolated yield (from C=CCCCOCC12CCC(CC1)N2C(=O)[C@H]1C[C@@]2(COCCCC=C)CC[C@@H]1N2C(=O)OC(C)(C)C, 18-membered ring, 8.0 h) turned out to be 73%.
Compound `CC(C)(C)OC(=O)N1[C@H]2CC[C@@]13COCCCCC=CCCCOCC14CCC(CC1)N4C(=O)[C@H]2C3` [2 -> 7 (C9)] registered a ring closure, isolated yield (from C=CCCCCOC[C@@]12CC[C@@H]([C@@H](C(=O)N3C4CCC3(COCCCC=C)CC4)C1)N2C(=O)OC(C)(C)C, 19-membered ring, 4.0 h) of 80%.
Consider `CC(C)(C)OC(=O)N1[C@H]2CC[C@@]13COCCCCC=CCCCCOCC14CCC(CC1)N4C(=O)[C@H]2C3` [3 -> 8 (C10)], for which the ring closure, isolated yield (from C=CCCCCOCC12CCC(CC1)N2C(=O)[C@H]1C[C@@]2(COCCCCC=C)CC[C@@H]1N2C(=O)OC(C)(C)C, 20-membered ring, 3.0 h) was determined as 94%.
Consider `CC(C)(C)OC(=O)N1[C@H]2CC[C@@]13COCCCCCC=CCCCCOCC14CCC(CC1)N4C(=O)[C@H]2C3` [4 -> 9 (C11)], for which the ring closure, isolated yield (from C=CCCCCCOC[C@@]12CC[C@@H]([C@@H](C(=O)N3C4CCC3(COCCCCC=C)CC4)C1)N2C(=O)OC(C)(C)C, 21-membered ring, 2.0 h) stood at 87%.
As for `CC(C)(C)OC(=O)N1[C@H]2CC[C@@]13COCCCCCC=CCCCCCOCC14CCC(CC1)N4C(=O)[C@H]2C3` [5 -> 10 (C12)], the ring closure, isolated yield (from C=CCCCCCOCC12CCC(CC1)N2C(=O)[C@H]1C[C@@]2(COCCCCCC=C)CC[C@@H]1N2C(=O)OC(C)(C)C, 22-membered ring, 16.0 h) stood at 64%.
On to `Cc1ccc(S(=O)(=O)N2[C@H]3CC[C@@]24COCCCCC=CCCCCOCC25CCC(CC2)N5C(=O)[C@H]3C4)cc1` [36 -> Ts-8 (C10, N-Ts)], for which, for the setting “from C=CCCCCOCC12CCC(CC1)N2C(=O)[C@H]1C[C@@]2(COCCCCC=C)CC[C@@H]1N2S(=O)(=O)c1ccc(C)cc1, 20-membered ring, 1.0 h”, the ring closure, isolated yield amounted to 91%.
